Reference: patent US9302999B2, “Substituted triazoles as herbicides” (E. I. DU PONT DE NEMOURS AND COMPANY, priority 2012, dated 2016)

Assays:
Assay type in all cases: in vivo
[1] = test system: wheat (Triticum aestivum); experiment: Test A pre-/postemergence: wheat
In short: (§1)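 Visual 0–100 injury ratings (0 no effect, 100 complete control) taken about ten days after treatment, relative to untreated controls. Preemergence treatment was a directed soil spray; postemergence plants were 2–10 cm tall at one- to two-leaf stage. Soil: loam/sand blend.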

[2] = test system: galium (catchweed bedstraw, Galium aparine); experiment: Test C pre-/postemergence: galium
In short: (§2)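 Preemergence on seeds in loam/sand, postemergence on 2–18 cm (1–4-leaf) plants in peat-based medium; compounds in non-phytotoxic solvent with surfactant. After 13–15 days in greenhouse, visual rating versus controls, 0 (no effect) to 100 (complete control).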

[3] = test system: lambsquarters (Chenopodium album); experiment: Test C pre-/postemergence: lambsquarters
In short: as §2

[4] = test system: barnyardgrass (Echinochloa crus-galli); experiment: Test B flooded paddy: barnyardgrass; settings: Flood; 125 g ai/ha; applied to paddy water at 2-leaf stage; visually evaluated after 13 to 15 days
In short: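 Plants were grown to the 2-leaf stage, then pots were flooded to 3 cm above the soil and compounds were applied directly into the paddy water. Water depth was held for the whole test; after 13 to 15 days in a greenhouse, injury was visually rated against untreated controls (0 = no effect, 100 = complete control).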

[5] = test system: morningglory (Ipomoea coccinea); experiment: Test C pre-/postemergence: morningglory
In short: as §2

[6] = test system: foxtail, giant (giant foxtail, Setaria faberii); experiment: Test C pre-/postemergence: foxtail, giant
In short: as §2

corn (Zea mays) = experiment: Test C pre-/postemergence: corn
In short: as §2

[7] = test system: pigweed (Amaranthus retroflexus); experiment: Test A pre-/postemergence: pigweed
In short: as §1

[8] = test system: ryegrass, Italian (Italian ryegrass, Lolium multiflorum); experiment: Test C pre-/postemergence: ryegrass, Italian
In short: as §2

[9] = test system: large crabgrass (Digitaria sanguinalis); experiment: Test C pre-/postemergence: large crabgrass
In short: as §2

[10] = Postemergence, 125 g ai/ha, 0 to 100 scale, 0 is no effect, 100 is complete control
[11] = Postemergence, 500 g ai/ha, 0 to 100 scale, 0 is no effect, 100 is complete control
[12] = Preemergence, 125 g ai/ha, 0 to 100 scale where 0 is no effect and 100 is complete control
[13] = Preemergence, 500 g ai/ha, 0 to 100 scale (0 no effect, 100 complete control)
[14] = Postemergence, 31 g ai/ha, scale 0 to 100 (0 no effect, 100 complete control)
[15] = Postemergence, 62 g ai/ha, scale 0 to 100 (0 no effect, 100 complete control)
[16] = Postemergence, 125 g ai/ha, scale 0 to 100, 0 no effect, 100 complete control
[17] = Postemergence, 250 g ai/ha, scale 0 to 100 (0 no effect, 100 complete control)
[18] = Preemergence, 31 g ai/ha, scale 0 (no effect) to 100 (complete control)
[19] = Preemergence, 62 g ai/ha, scale of 0 to 100, 0 is no effect, 100 is complete control
[20] = Preemergence, 125 g ai/ha, scale 0 to 100, 0 no effect, 100 complete control
[21] = Preemergence, 250 g ai/ha, scale 0 to 100, 0 no effect, 100 complete control
[22] = Postemergence, 250 g ai/ha, scale 0 to 100

CCc1nn(-c2ccc(C(F)(F)F)c(F)c2)nc1Oc1ccnc(C(F)(F)F)c1 [Compound 183]
60: Plant response rating, Wheat [1, 13] | Plant response rating, Galium [2, 18]
20: Plant response rating, Corn (corn (Zea mays); [15]) | Plant response rating, Ryegrass, Italian [8, 16]
25: Plant response rating, Crabgrass, Large [9, 14]
80: Plant response rating, Lambsquarters [3, 18] | Plant response rating, Ryegrass, Italian [8, 19]
90: Plant response rating, Galium [2, 16] | Plant response rating, Galium [2, 17] | Plant response rating, Ryegrass, Italian [8, 20]
35: Plant response rating, Crabgrass, Large [9, 15] | Plant response rating, Crabgrass, Large [9, 16]
65: Plant response rating, Foxtail, Giant [6, 16] | Plant response rating, Ryegrass, Italian [8, 18]
70: Plant response rating, Galium [2, 14] | Plant response rating, Galium [2, 15] | Plant response rating, Morningglory [5, 20]
40: Wheat plant response rating [1, 11] | Plant response rating, Corn (corn (Zea mays); [20]) | Plant response rating, Corn (corn (Zea mays); [21]) | Plant response rating, Ryegrass, Italian [8, 17]
100: Plant response rating, Galium [2, 19] | Plant response rating, Galium [2, 20] | Plant response rating, Galium [2, 21] | Plant response rating, Lambsquarters [3, 19] | Plant response rating, Lambsquarters [3, 20] | Plant response rating, Lambsquarters [3, 21] | Plant response rating, Morningglory [5, 16] | Plant response rating, Morningglory [5, 17] | Plant response rating, Foxtail, Giant [6, 18] | Plant response rating, Foxtail, Giant [6, 19] | Plant response rating, Foxtail, Giant [6, 20] | Plant response rating, Foxtail, Giant [6, 21] | Plant response rating, Pigweed [7, 10] | Pigweed plant response rating [7, 11] | Plant response rating, Pigweed [7, 12] | Plant response rating, Pigweed [7, 13] | Plant response rating, Crabgrass, Large [9, 18] | Plant response rating, Crabgrass, Large [9, 19] | Plant response rating, Crabgrass, Large [9, 20] | Plant response rating, Crabgrass, Large [9, 21]
45: Plant response rating, Morningglory [5, 19] | Plant response rating, Foxtail, Giant [6, 14] | Plant response rating, Foxtail, Giant [6, 15]
98: Plant response rating, Lambsquarters [3, 17] | Plant response rating, Morningglory [5, 14] | Plant response rating, Morningglory [5, 15]
15: Plant response rating, Corn (corn (Zea mays); [18]) | Plant response rating, Corn (corn (Zea mays); [19]) | Plant response rating, Ryegrass, Italian [8, 15]
95: Plant response rating, Lambsquarters [3, 15] | Plant response rating, Lambsquarters [3, 16] | Plant response rating, Morningglory [5, 21] | Plant response rating, Ryegrass, Italian [8, 21]
85: Plant response rating, Lambsquarters [3, 14] | Plant response rating, Foxtail, Giant [6, 22] | Plant response rating, Crabgrass, Large [9, 22]
10: Plant response rating, Corn (corn (Zea mays); [14]) | Plant response rating, Ryegrass, Italian [8, 14]
30: Plant response rating, Wheat [1, 10] | Plant response rating, Wheat [1, 12] | Plant response rating, Barnyardgrass (0 to 100 scale, 0 is no effect, 100 is complete control) [4] | Plant response rating, Morningglory [5, 18] | Plant response rating, Corn (corn (Zea mays); [22])

CCOc1nn(-c2ccc(Cl)cc2)nc1Cc1ccnc(C(F)(F)F)c1 [Compound 188]
10: Plant response rating, Corn (corn (Zea mays); [14]) | Plant response rating, Corn (corn (Zea mays); [20])
5: Plant response rating, Corn (corn (Zea mays); [18]) | Plant response rating, Corn (corn (Zea mays); [19])
30: Plant response rating, Wheat [1, 12]
60: Plant response rating, Galium [2, 14] | Plant response rating, Morningglory [5, 19] | Plant response rating, Ryegrass, Italian [8, 18]
95: Plant response rating, Galium [2, 20] | Plant response rating, Galium [2, 21] | Plant response rating, Lambsquarters [3, 15] | Plant response rating, Ryegrass, Italian [8, 20] | Plant response rating, Crabgrass, Large [9, 16] | Plant response rating, Crabgrass, Large [9, 22]
35: Plant response rating, Corn (corn (Zea mays); [22])
65: Plant response rating, Ryegrass, Italian [8, 19]
90: Plant response rating, Galium [2, 17] | Plant response rating, Galium [2, 18] | Plant response rating, Galium [2, 19] | Plant response rating, Lambsquarters [3, 14] | Plant response rating, Lambsquarters [3, 18] | Plant response rating, Lambsquarters [3, 19] | Plant response rating, Ryegrass, Italian [8, 17]
100: Plant response rating, Lambsquarters [3, 21] | Plant response rating, Morningglory [5, 15] | Plant response rating, Morningglory [5, 16] | Plant response rating, Morningglory [5, 21] | Plant response rating, Foxtail, Giant [6, 22] | Plant response rating, Foxtail, Giant [6, 18] | Plant response rating, Foxtail, Giant [6, 19] | Plant response rating, Foxtail, Giant [6, 20] | Plant response rating, Foxtail, Giant [6, 21] | Plant response rating, Pigweed [7, 10] | Pigweed plant response rating [7, 11] | Plant response rating, Pigweed [7, 12] | Plant response rating, Pigweed [7, 13] | Plant response rating, Crabgrass, Large [9, 19] | Plant response rating, Crabgrass, Large [9, 20] | Plant response rating, Crabgrass, Large [9, 21]
75: Plant response rating, Barnyardgrass (0 to 100 scale, 0 is no effect, 100 is complete control) [4]
50: Plant response rating, Wheat [1, 13] | Plant response rating, Ryegrass, Italian [8, 14] | Plant response rating, Crabgrass, Large [9, 14]
20: Plant response rating, Corn (corn (Zea mays); [15]) | Plant response rating, Corn (corn (Zea mays); [16]) | Plant response rating, Corn (corn (Zea mays); [21])
98: Plant response rating, Lambsquarters [3, 16] | Plant response rating, Lambsquarters [3, 17] | Plant response rating, Lambsquarters [3, 20] | Plant response rating, Foxtail, Giant [6, 14] | Plant response rating, Foxtail, Giant [6, 15] | Plant response rating, Foxtail, Giant [6, 16] | Plant response rating, Ryegrass, Italian [8, 21] | Plant response rating, Crabgrass, Large [9, 18]
70: Plant response rating, Wheat [1, 10] | Wheat plant response rating [1, 11] | Plant response rating, Morningglory [5, 14] | Plant response rating, Ryegrass, Italian [8, 15]
80: Plant response rating, Galium [2, 15]
85: Plant response rating, Galium [2, 16] | Plant response rating, Morningglory [5, 20] | Plant response rating, Ryegrass, Italian [8, 16] | Plant response rating, Crabgrass, Large [9, 15]
